US20240401144A2, “PRIMER-PROBE COMPOSITION, KIT, AND DETECTION METHOD” (ASCENTAWITS PHARMACEUTICALS, LTD., priority 2021, published 2024)

Assays:
[1] = test system: C3A hepatocellular carcinoma cell line; experiment: Ex vivo proliferation assay, 96 h exposure; type: cell-based; details: Homo sapiens, 96 h of exposure, AKR1C3 protein High, read-out: 3424 IC50
Procedure: (§1) Exponentially growing cells were inoculated. After 24 h, the test compound OBI-3424 was added. After addition of the test compound OBI-3424, plates were incubated in a standard tissue incubator at 37° C. for the indicated hours. At the end of the experiment, viable cells were detected using the CellTiter Glo (CTG) assay kit or AlamarBlue. Drug concentrations (IC50) resulting in 50% growth inhibition relative to untreated control were calculated using XLfit (IDBS, Boston, MA) or Prism 6 (GraphPad, San Diego, CA).
(§2) After exposing the hepatocellular carcinoma cell lines to compound OBI-3424 for 96 h and exposing the NSCLC cell lines to compound OBI-3424 for 72 h, the IC50 value was determined by ex vivo proliferation assay, and the expression of AKR1C3 protein in hepatocellular carcinoma cell lines was determined by Western blotting (tubulin was used as loading control). The expression data of AKR1C3 RNA in the hepatocellular carcinoma cell lines and in the NSCLC cell lines were from CrownBio database (https://db.crownbio.com/Crownbio/OncoExpress_Login.aspx).

[2] = test system: HLE hepatocellular carcinoma cell line; experiment: Ex vivo proliferation assay, 96 h exposure; type: cell-based; details: Homo sapiens, 96 h of exposure, AKR1C3 protein High, read-out: 3424 IC50
Procedure: as §1, §2

[3] = test system: HLF hepatocellular carcinoma cell line; experiment: Ex vivo proliferation assay, 96 h exposure; type: cell-based; details: Homo sapiens, 96 h of exposure, AKR1C3 protein Low, read-out: 3424 IC50
Procedure: as §1, §2

[4] = test system: SK-HEP-1 hepatocellular carcinoma cell line; experiment: Ex vivo proliferation assay, 96 h exposure; type: cell-based; details: Homo sapiens, SK-HEP1; SK-HEP-1, 96 h of exposure; AKR1C3 protein Low; read-out: 3424 IC50
Procedure: as §1, §2

[5] = test system: SNU-182 hepatocellular carcinoma cell line; experiment: Ex vivo proliferation assay, 96 h exposure; type: cell-based; details: Homo sapiens; SNU-182, 96 h of exposure; AKR1C3 protein Low; read-out: 3424 IC50
Procedure: as §1, §2

[6] = test system: SNU-398 hepatocellular carcinoma cell line; experiment: Ex vivo proliferation assay, 96 h exposure; type: cell-based; details: Homo sapiens; SNU-398, 96 h of exposure; AKR1C3 protein Low; read-out: 3424 IC50
Procedure: as §1, §2

[7] = test system: SNU-449 hepatocellular carcinoma cell line; experiment: Ex vivo proliferation assay, 96 h exposure; type: cell-based; details: Homo sapiens; SNU-449, 96 h of exposure; AKR1C3 protein High; read-out: 3424 IC50
Procedure: as §1, §2

[8] = test system: SNU-475 hepatocellular carcinoma cell line; experiment: Ex vivo proliferation assay, 96 h exposure; type: cell-based; details: Homo sapiens; SNU-475, 96 h of exposure; AKR1C3 protein High; read-out: 3424 IC50
Procedure: as §1, §2

[9] = test system: HL-60, clone 15 cell line; experiment: Ex vivo cytotoxicity assay, leukemia cell lines; type: cell-based; details: Homo sapiens; Table 5: HL-60, clone 15, APL, 72 h; AKR1C3 expression Low
Procedure: Leukemia cell lines were suspended in RPMI medium supplemented with FBS (Biosera), while ALL PDX cells were cultured in QBSF medium (Quality Biological Inc.,) supplemented with Flt-3 ligand (20 ng/ml, BioNovus Life Sciences) or IL7 (10-20 ng/ml, Jomar Life Research). Cells were inoculated according to the optimal cell density and incubated for 3h or overnight (37° C., 5% CO2). PDX cells and leukemia cell lines were treated with OBI-3424 ([…]) or medium control for 48 or 72 h, respectively. Viability was determined using Alamar Blue reduction assay or Cell Titer-Glo Luminescent Cell Viability Assay (Promega). The half-maximal inhibitory concentration (IC50) was used to calculate the interpolation of nonlinear regression curves by GraphPad Prism 7 software.
The expression levels of AKR1C3 protein was determined by Western blot analysis. The ex vivo cytotoxicity of OBI-3424 was determined using CellTiter-Glo assay and calculated as 50% maximum inhibitory concentration (IC50).

[10] = test system: CCRF-CEM hematological cancer cell line; experiment: Ex vivo proliferation assay, hematological cancer cell lines, 72 h; type: cell-based; details: Homo sapiens; Table 6: CCRF-CEM, 72 h of exposure
Procedure: as §1
(§3) After exposing the hematological cancer cell lines to compound OBI-3424 for 72 h, the IC50 value was determined by ex vivo proliferation assay. The expression data of AKR1C3 RNA in hematological cancer cell lines was from CrownBio database (https://db.crownbio.com/Crownbio/OncoExpress_Login.aspx).

[11] = test system: HEL hematological cancer cell line; experiment: as above; type: cell-based; details: Homo sapiens; Table 6: HEL, 72 h of exposure
Procedure: as §1, §3

[12] = test system: Jurkat hematological cancer cell line; experiment: as above; type: cell-based; details: Homo sapiens; Table 6: Jurkat, 72 h of exposure
Procedure: as §1, §3

[13] = test system: KG-1 hematological cancer cell line; experiment: as above; type: cell-based; details: Homo sapiens; Table 6: KG-1, 72 h of exposure
Procedure: as §1, §3

[14] = test system: Kasumi-1 hematological cancer cell line; experiment: as above; type: cell-based; details: Homo sapiens; Table 6: Kasumi-1, 72 h of exposure
Procedure: as §1, §3

[15] = test system: P31/FUJ hematological cancer cell line; experiment: as above; type: cell-based; details: Homo sapiens; Table 6: P31/FUJ, 72 h of exposure
Procedure: as §1, §3

[16] = test system: PF-382 hematological cancer cell line; experiment: as above; type: cell-based; details: Homo sapiens; Table 6: PF-382, 72 h of exposure
Procedure: as §1, §3

[17] = test system: SUP-T1 hematological cancer cell line; experiment: as above; type: cell-based; details: Homo sapiens; Table 6: SUP-T1, 72 h of exposure
Procedure: as §1, §3

[18] = test system: TALL-1 hematological cancer cell line; experiment: as above; type: cell-based; details: Homo sapiens; Table 6: TALL-1, 72 h of exposure
Procedure: as §1, §3

[19] = test system: TF-1 hematological cancer cell line; experiment: as above; type: cell-based; details: Homo sapiens; Table 6: TF-1, 72 h of exposure
Procedure: as §1, §3

[20] = test system: THP-1 hematological cancer cell line; experiment: as above; type: cell-based; details: Homo sapiens; Table 6: THP-1, 72 h of exposure
Procedure: as §1, §3

[21] = test system: hepatocellular carcinoma cell lines; experiment: Ex vivo proliferation assay, group of hepatocellular carcinoma cell lines (summary); type: cell-based, human
Procedure: as §1, §2
On the other hand, cells expressing low AKR1C3 were less sensitive to OBI-3424, where IC50 values were higher than 1000 nM.

IC50 [1]: 5 nM
IC50 [2]: 113 nM
IC50 [3]: > 1000 nM
IC50 [4]: > 1000 nM
IC50 [5]: > 1000 nM
IC50 [6]: > 1000 nM
IC50 [7]: 45 nM
IC50 [8]: 15 nM
IC50 [10]: 1.7 nM
IC50 [11]: 224 nM
IC50 [12]: 51.1 nM
IC50 [13]: 153 nM
IC50 [14]: ≥ 1000 nM
IC50 [15]: ≥ 1000 nM
IC50 [16]: 6 nM
IC50 [17]: 3.9 nM
IC50 [18]: 24 nM
IC50 [19]: 16.8 nM
IC50 [20]: ≥ 1000 nM
IC50 ([21]; Homo sapiens, cells expressing low AKR1C3): > 1000 nM
IC50 values ([21]; hepatocellular carcinoma cell lines with high AKR1C3 expression at both protein and RNA levels): low nanomolar range
Structure (SMILES): C[C@H](OP(=O)(N1CC1)N1CC1)c1ccc([N+](=O)[O-])c(Oc2cccc(C(=O)N(C)C)c2)c1 [OBI-3424]
IC50 [9]: 87 nM
